The values below come from article PMC12779026, “α-Glycosidase activity of novel coumarin–triazole–coumarin dyads” (Turkish Journal of Chemistry, 2025).

Assay [1] deals with α-glycosidase. As to the kind of experiment: α-Glycosidase inhibitory assay (spectrophotometric, 4-pNPG substrate, 405 nm). In kind it is biochemical. The conditions noted are these: 0.5 U/mL α-glycosidase, 5 mM 4-pNPG, phosphate buffer pH 6.9, compounds 5–250 μM. The protocol: The α-glycosidase inhibitory effects of the compounds were determined as described in the previous study. Acarbose (Sigma-Aldrich, A8980) was used as a reference compound in this study. The compounds were first dissolved in 25 mM DMSO and then diluted to 1 mM with phosphate buffer (0.1 M, pH: 6.9). In brief, the compounds and acarbose in phosphate buffer (0.1 M, pH: 6.9) were added to a 96-well plate at 5–250 μM. Then, 100 μL, 0.5 U/mL α-glycosidase (Sigma-Aldrich, G5003) was added to the wells. After 10 min, 50 μL of 5 mM p-nitrophenyl-α-D-glucopyranoside (4-pNPG) (Sigma-Aldrich, 487506) was added as a substrate to each well. After incubation for 10 min, spectrophotometric measurement was performed at 405 nm. The percentage inhibition rate of the compounds was calculated using the following formula: […]
In this formula, A0 and A1 represent the absorbance of the mixture in the absence and presence of the compound, respectively. In addition, IC50 values, which indicate the […] required to inhibit half of the enzyme activity, were calculated.

Assay [2] has as its target α-glycosidase. Description: Kinetic analysis of α-glycosidase inhibition (Lineweaver–Burk and Dixon plots). The assay is classed as biochemical. As to the method:
To determine this, the final concentration of α-glycosidase was fixed at 0.5 U/mL. Then, different concentrations of 4-pNPG (2.5–20 mM) and varying concentrations of 4e (20 μM, 40 μM, and 100 μM) showing inhibitory potential were added to the wells. Following incubation, the absorbance values at 405 nm in the presence and absence of the compound were measured in the microplate reader. Lineweaver–Burk and Dixon plots were used to determine the inhibitor type and the inhibitory constant (Ki) of 4e. In the Lineweaver–Burk plot, the y-axis represents 1/V, the inverse of the reaction rate, while the x-axis represents 1/[S], the inverse of the substrate concentration. According to this plot, the points intersecting the y-axis give the value 1/Vmax. From here, the Vmax value, which represents the maximum reaction rate, can be determined. Km, a value indicating the enzyme’s interest in the substrate, can be determined from the points where the line intersects the x-axis. The type of inhibition is then determined by analyzing the changes in Vmax and Km. The Dixon graph is used to calculate the Ki value, which indicates the inhibitory potential of 4e.

Broadly, the IC50 is the concentration that inhibits the measured activity by half. High values mean weaker potency in that assay, low ones greater potency in that assay. Broadly, the Ki is the equilibrium dissociation constant of an inhibitor or competing ligand from its target. A high value points to weaker binding.

Entries after “also recorded” stand apart in the source; their conditions may differ.

For `Cc1c(O)ccc2c(Cn3cc(COc4ccc5cc(-c6ccccc6)c(=O)oc5c4)nn3)cc(=O)oc12` [4a, 7-Hydroxy-8-methyl-4-((4-(((2-oxo-3-phenyl-2H-chromen-7-yl)oxy)methyl)-1H-1,2,3-triazol-1-yl)methyl)-2H-chromen-2-one], it took 95 ± 3.55 µM to reach half-maximal inhibition against α-glycosidase [1] (IC50).
Still for that read-out and setting: in the case of `Cc1ccc(-c2cc3ccc(OCc4cn(Cc5cc(=O)oc6c(C)c(O)ccc56)nn4)cc3oc2=O)cc1` [4b, 7-Hydroxy-8-methyl-4-((4-(((2-oxo-3-(p-tolyl)-2H-chromen-7-yl)oxy)methyl)-1H-1,2,3-triazol-1-yl)methyl)-2H-chromen-2-one] it was 123 ± 4.2 µM.
In the case of `COc1ccc(-c2cc3ccc(OCc4cn(Cc5cc(=O)oc6c(C)c(O)ccc56)nn4)cc3oc2=O)cc1` [4c, 7-Hydroxy-4-((4-(((3-(4-methoxyphenyl)-2-oxo-2H-chromen-7-yl)oxy)methyl)-1H-1,2,3-triazol-1-yl)methyl)-8-methyl-2H-chromen-2-one], the IC50 at α-glycosidase [1] is 109 ± 2.4 µM.
Same read-out and setting: in the case of `Cc1c(O)ccc2c(Cn3cc(COc4ccc5cc(-c6ccc(F)cc6)c(=O)oc5c4)nn3)cc(=O)oc12` [4d, 4-((4-(((3-(4-Fluorophenyl)-2-oxo-2H-chromen-7-yl)oxy)methyl)-1H-1,2,3-triazol-1-yl)methyl)-7-hydroxy-8-methyl-2H-chromen-2-one] it was 93.5 ± 1.7 µM.
On α-glycosidase [1], `Cc1c(O)ccc2c(Cn3cc(COc4ccc5cc(-c6ccc([N+](=O)[O-])cc6)c(=O)oc5c4)nn3)cc(=O)oc12` [4e, 7-Hydroxy-8-methyl-4-((4-(((3-(4-nitrophenyl)-2-oxo-2H-chromen-7-yl)oxy)methyl)-1H-1,2,3-triazol-1-yl)methyl)-2H-chromen-2-one] came in with an IC50 of 39 ± 0.77 µM. In addition, the Ki at α-glycosidase [2] (Dixon plot) was determined as 19.95 ± 0.15 µM. Moreover, in the assay on α-glycosidase [2] (Lineweaver–Burk plot, 4-pNPG 2.5–20 mM, 4e 20, 40, 100 μM), the “Type (of inhibition)” value was “mixed type; also recorded: mixed inhibitor”.
`C[C@H]1O[C@H](O[C@H]2[C@H](O)[C@@H](O)[C@@H](O[C@H]3[C@H](O)[C@@H](O)C(O)O[C@@H]3CO)O[C@@H]2CO)[C@H](O)[C@@H](O)[C@@H]1N[C@H]1C=C(CO)[C@@H](O)[C@H](O)[C@H]1O` (some centres unmarked) [Acarbose, reference compound] had a 50% inhibitory concentration (IC50) against α-glycosidase [1] of 64.5 ± 2.53 µM.
